From patent US8003659B2, “Macrocyclic serine protease inhibitors” (Indenix Pharmaceuticals, Inc., priority 2008, dated 2011) come the findings set out here.

The structures appear in SMILES notation. pEC50, pIC50: −log10 of the molar value.

In one data set the target is T1, HCV NS3-NS4A protease (Hepatitis C virus genotype 1b, UniProt P26663).
T1 construct: made in house
The data set can be described thus: HCV Protease Assay (SensoLyte 620 HCV Protease Assay kit). The conditions noted are these: 1.2 nM HCV NS3-NS4A protease, 60 min at room temperature, 5% DMSO. The class given is biochemical. How it is done: General procedure: Measurement of the inhibitory effect of compounds on HCV protease activity was performed with the SensoLyte™ 620 HCV Protease Assay kit from AnaSpec, Inc. (San Jose, Calif.) under conditions described by the supplier using 1.2 nM HCV NS3-NS4A protease, which was obtained according to Taremi et al. (Protein Science, 1998, 7, 2143-2149). The compounds were tested at a variety of concentrations in assay buffer containing a final DMSO concentration of 5%. Reactions were allowed to proceed for 60 min at room temperature and fluorescence measurements were recorded with a Tecan Infinity Spectrofluorimeter. The IC50 values were determined from the percent inhibition versus concentration data using a sigmoidal non-linear regression analysis based on four parameters with Tecan Magellan software.

In data set [1] the test system is Huh-7 cells containing HCV Con1 subgenomic replicon (GS4.1 cells). Kind of data set: HCV Replicon Assay (NS4A ELISA). The settings on record: Hepatitis C virus, Huh-7, 72 hr, NS4A protein by ELISA. It is filed as cell-based. How it is done: General procedure: Huh-7 cells containing HCV Con1 subgenomic replicon (GS4.1 cells) were grown in Dulbecco's Modified Eagle Medium (DMEM) supplemented with 10% fetal bovine serum (FBS), 2 mM L-glutamine, 110 mg/L sodium pyruvate, 1× non-essential amino acids, 100 U/mL penicillin-streptomycin, and 0.5 mg/mL G418 (Invitrogen). For dose-response testing, the cells were seeded in 96-well plates at 7.5×10^3 cells/well in a volume of 50 μL, and incubated at 37° C./5% CO2. Three hours after plating, 50 μL of ten 2-fold serial dilutions of compounds (highest concentration, 75 μM) were added, and cell cultures were incubated at 37° C./5% CO2 in the presence of 0.5% DMSO. Alternatively, compounds were tested at a single concentration of 15 μM. In all cases, Huh-7 cells lacking the HCV replicon served as negative control. The cells were incubated in the presence of compounds for 72 hr after which they were monitored for expression of the NS4A protein by enzyme-linked immunosorbent assay (ELISA). For this, the plates were then fixed for 1 min with acetone/methanol (1:1, v/v), washed twice with phosphate-buffered saline (PBS), 0.1% Tween 20, blocked for 1 hr at room temperature with TNE buffer containing 10% FBS and then incubated for 2 hr at 37° C. with the anti-NS4A mouse monoclonal antibody A-236 (ViroGen) diluted in the same buffer. After washing three times with PBS, 0.1% Tween 20, the cells were incubated 1 hr at 37° C. with anti-mouse immunoglobulin G-peroxidase conjugate in TNE, 10% FBS. After washing as described above, the reaction was developed with O-phenylenediamine (Zymed). The reaction was stopped after 30 min with 2 NH2SO4, and absorbance was read at 492 nm using Sunrise Tecan spectrophotometer. EC50 values were determined from the % inhibition versus concentration data using a sigmoidal non-linear regression analysis based on four parameters with Tecan Magellan software. When screening at a single concentration, the results were expressed as % inhibition at 15 μM.
For orientation: A replicon is a self-replicating genome or part of one, used to study replication in cells.

Data set [2] is described as follows: Cytotoxicity evaluation (Cell Titer 96 AQueous One Solution Cell Proliferation Assay). It is filed as cell-based. The conditions noted are these: human; GS4.1 cells, cellular viability. How it is done:
For cytotoxicity evaluation, GS4.1 cells were treated with compounds as described above and cellular viability was monitored using the Cell Titer 96 AQueous One Solution Cell Proliferation Assay (Promega). CC50 values were determined from the % cytotoxicity versus concentration data with Tecan Magellan software as described above.

T1 sequence (P26663 1027-1208): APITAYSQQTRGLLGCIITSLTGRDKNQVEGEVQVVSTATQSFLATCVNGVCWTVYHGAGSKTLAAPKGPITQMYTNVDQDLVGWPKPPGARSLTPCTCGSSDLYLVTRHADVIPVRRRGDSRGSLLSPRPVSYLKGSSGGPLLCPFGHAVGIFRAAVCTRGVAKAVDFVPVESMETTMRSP

Usually pIC50 stands for the IC50 on a negative log10 scale, so that one unit is a factor of ten. As usually defined, the pEC50 is −log10 of the EC50, conventionally taken in molar units. A lower pEC50 goes with a high EC50. By CC50 is commonly meant the concentration at which the toxic effect on the cells reaches its halfway point. Lower therefore signals harm at low concentration. `COc1cc(C)c2nc(-c3nc(C(C)C)cs3)cc(O[C@H]3C[C@H]4C(=O)N(C)CCCC/C=C\[C@@H]5C[C@@]5(C(=O)NS(=O)(=O)C5CC5)NC(=O)N4C3)c2c1` [Compound 62f, (Z)-(4R,6S,15S,17S)-[17-[6-methoxy-8-methyl-2-(4-isopropylthiazol-2-yl)quinolin-4-yloxy]-13-N-methyl-2,14-dioxo-1,3,13-triazatricyclo[13.3.0.0]octadec-7-en-4-yl]carbonyl(cyclopropyl)sulfonamide] gave a pIC50 at HCV NS3-NS4A protease of more than 6.00. Besides, the negative-log EC50 (pEC50) in data set [1] was more than 6.00. In data set [2], this compound showed a CC50 of more than 75 µM.
`COc1ccc2c(O[C@H]3C[C@H]4C(=O)N(C)CCCC/C=C\[C@@H]5C[C@@]5(C(=O)NS(C)(=O)=O)NC(=O)N4C3)cc(-c3nc(C(C)C)cs3)nc2c1C` [Compound 63b] had a pIC50 at HCV NS3-NS4A protease of more than 6.00. Moreover, in data set [1], the pEC50 was 5.00 to 6.00. The same compound had a CC50 in data set [2] of more than 75 µM.
`COc1ccc2c(O[C@H]3C[C@H]4C(=O)N(C)CCCC/C=C\[C@@H]5C[C@@]5(C(=O)NS(=O)(=O)C5(C)CC5)NC(=O)N4C3)cc(-c3nc(C(F)(F)F)cs3)nc2c1Cl` [Compound 68d, (Z)-(4R,6S,15S,17S)-[17-[8-chloro-7-methoxy-2-(4-trifluoromethythiazol-2-yl)quinolin-4-yloxy]-13-N-methyl-2,14-dioxo-1,3,13-triazatricyclo[13.3.0.0]octadec-7-en-4-yl]carbonyl(1-methylcyclopropyl)sulfonamide] gave a pIC50 on HCV NS3-NS4A protease of more than 6.00. The compound further gave a pEC50 in data set [1] of more than 6.00. This compound returned a CC50 in data set [2] of more than 75 µM.
In the case of `COc1ccc2c(O[C@H]3C[C@H]4C(=O)N(C)CCCC/C=C\[C@@H]5C[C@@]5(C(=O)NS(=O)(=O)C5CC5)NC(=O)N4C3)cc(-c3nc(C(F)(F)F)cs3)nc2c1Cl` [Compound 69d, (Z)-(4R,6S,15S,17S)-[17-[8-chloro-7-methoxy-2-(4-trifluoromethythiazol-2-yl)quinolin-4-yloxy]-13-N-methyl-2,14-dioxo-1,3,13-triazatricyclo[13.3.0.0]octadec-7-en-4-yl]carbonyl(cyclopropyl)sulfonamide], the pIC50 at HCV NS3-NS4A protease was more than 6.00. The pEC50 in data set [1] was more than 6.00. Besides, in data set [2], the CC50 lay within 10 to 75 µM.
Consider `C#CC1(S(=O)(=O)NC(=O)[C@@]23C[C@H]2/C=C\CCCCN(C)C(=O)[C@@H]2C[C@H](Oc4cc(-c5nc(C(C)C)cs5)nc5c(C)c(OC)ccc45)CN2C(=O)N3)CC1` [Compound 83b, (Z)-(4R,6S,15S,17S)-[17-[7-methoxy-8-methyl-2-(4-isopropylthiazol-2-yl)quinolin-4-yloxy]-13-N-methyl-2,14-dioxo-1,3,13-triazatricyclo[13.3.0.0]octadec-7-en-4-yl]carbonyl(1-ethynylcyclopropyl)sulfonamide], for which, at HCV NS3-NS4A protease, the pIC50 is more than 6.00. The pEC50 in data set [1] is more than 6.00. In data set [2], this compound returned a CC50 of more than 75 µM.
Regarding `COc1ccc2c(O[C@H]3C[C@H]4C(=O)N(C)CCCC/C=C\[C@@H]5C[C@@]5(C(=O)NS(=O)(=O)C5(C)CC5)NC(=O)N4C3)cc(-n3ccc(C(F)(F)F)n3)nc2c1Cl` [Compound 91a, (Z)-(4R,6S,15S,17S)-[17-[8-chloro-7-methoxy-2-(3-trifluoromethyl-1H-pyrazol-1-yl)quinolin-4-yloxy]-13-N-methyl-2,14-dioxo-1,3,13-triazatricyclo[13.3.0.0]octadec-7-ene-4-yl]carbonyl(1-methylcyclopropyl)sulfonamide], the pIC50 against HCV NS3-NS4A protease is more than 6.00. Further, the pEC50 in data set [1] is more than 6.00. The same compound displayed a CC50 in data set [2] of more than 75 µM.
With `COc1ccc2c(O[C@H]3C[C@H]4C(=O)N(C)CCCC/C=C\[C@@H]5C[C@@]5(C(=O)NS(=O)(=O)C5(C)CC5)NC(=O)N4C3)cc(-n3ccc(C(C)C)n3)nc2c1C` [Compound 91b, (Z)-(4R,6S,15S,17S)-[17-[8-methyl-7-methoxy-2-(3-isopropyl-1H-pyrazol-1-yl)quinolin-4-yloxy]-13-N-methyl-2,14-dioxo-1,3,13-triazatricyclo[13.3.0.0]octadec-7-ene-4-yl]carbonyl(1-methylcyclopropyl)sulfonamide], the negative-log IC50 (pIC50) on HCV NS3-NS4A protease is more than 6.00. Further, the pEC50 in data set [1] is more than 6.00. In data set [2], this compound showed a CC50 of 10 to 75 µM.
Consider `COc1ccc2c(O[C@H]3C[C@H]4C(=O)N(C)CCCC/C=C\[C@@H]5C[C@@]5(C(=O)NS(=O)(=O)C5(C)CC5)NC(=O)N4C3)cc(-n3ccc(C(F)(F)F)n3)nc2c1C` [Compound 91c, (Z)-(4R,6S,15S,17S)-[17-[7-methoxy-8-methyl-2-(3-trifluoromethyl-1H-pyrazol-1-yl)quinolin-4-yloxy]-13-N-methyl-2,14-dioxo-1,3,13-triazatricyclo[13.3.0.0]octadec-7-ene-4-yl]carbonyl(1-methylcyclopropyl)sulfonamide], for which the negative logarithm of the IC50 (pIC50) against HCV NS3-NS4A protease is more than 6.00. This compound had a pEC50 in data set [1] of more than 6.00. Further, in data set [2], the CC50 is more than 75 µM.
`COc1ccc2c(O[C@H]3C[C@H]4C(=O)N(C)CCCC/C=C\[C@@H]5C[C@@]5(C(=O)NS(=O)(=O)C5(C)CC5)NC(=O)N4C3)cc(-n3ccc(C(C)C)n3)nc2c1Cl` [Compound 91d, (Z)-(4R,6S,15S,17S)-[17-[8-chloro-7-methoxy-2-(3-isopropyl-1H-pyrazol-1-yl)quinolin-4-yloxy]-13-N-methyl-2,14-dioxo-1,3,13-triazatricyclo[13.3.0.0]octadec-7-ene-4-yl]carbonyl(1-methylcyclopropyl)sulfonamide] had a pIC50 on HCV NS3-NS4A protease of more than 6.00. For the same compound, in data set [1], the negative logarithm of the EC50 (pEC50) was more than 6.00. Further, the CC50 in data set [2] is more than 75 µM.
For the compound `COc1ccc2c(O[C@H]3C[C@H]4C(=O)N(C)CCCC/C=C\[C@@H]5C[C@@]5(C(=O)NS(=O)(=O)C5CC5)NC(=O)N4C3)cc(-n3ccc(C(C)C)n3)nc2c1C` [Compound 91f, (Z)-(4R,6S,15S,17S)-[17-[8-methyl-7-methoxy-2-(3-isopropyl-1H-pyrazol-1-yl)quinolin-4-yloxy]-13-N-methyl-2,14-dioxo-1,3,13-triazatricyclo[13.3.0.0]octadec-7-ene-4-yl]carbonyl(cyclopropyl)sulfonamide], at HCV NS3-NS4A protease, the pIC50 is more than 6.00. In data set [1], this compound had a pEC50 of more than 6.00. This compound also had a CC50 in data set [2] of more than 75 µM.
Regarding `COc1ccc2c(O[C@H]3C[C@H]4C(=O)N(C)CCCC/C=C\[C@@H]5C[C@@]5(C(=O)NS(=O)(=O)C5CC5)NC(=O)N4C3)cc(-n3ccc(C(F)(F)F)n3)nc2c1C` [Compound 91g, (Z)-(4R,6S,15S,17S)-[17-[7-methoxy-8-methyl-2-(3-trifluoromethyl-1H-pyrazol-1-yl)quinolin-4-yloxy]-13-N-methyl-2,14-dioxo-1,3,13-triazatricyclo[13.3.0.0]octadec-7-ene-4-yl]carbonyl(cyclopropyl)sulfonamide], the negative logarithm of the IC50 (pIC50) against HCV NS3-NS4A protease is more than 6.00. Further, the pEC50 in data set [1] was more than 6.00. Besides, in data set [2], the CC50 is more than 75 µM.
Consider `COc1ccc2c(O[C@H]3C[C@H]4C(=O)N(C)CCCC/C=C\[C@@H]5C[C@@]5(C(=O)NS(=O)(=O)C5(C)CC5)NC(=O)N4C3)cc(-c3cc(C(C)C)on3)nc2c1Cl` [Compound 96d, (Z)-(4R,6S,15S,17S)-[17-[8-chloro-7-methoxy-2-(5-isopropylisoxazol-3-yl)quinolin-4-yloxy]-13-N-methyl-2,14-dioxo-1,3,13-triazatricyclo[13.3.0.0]octadec-7-ene-4-yl]carbonyl(1-methylcyclopropyl)sulfonamide], for which the pIC50 on HCV NS3-NS4A protease was more than 6.00. The same compound showed a pEC50 in data set [1] of 5.00 to 6.00. Moreover, the CC50 in data set [2] is more than 75 µM.
